Twelve molecules from patent publication US8575338B2, “Pyrimidine, pyridine and triazine derivatives as maxi-K channel openers” (Mitsubishi Tanabe Pharma Corporation, priority 2008, dated 2013) can be followed below.

The target in one assay is T1, Cox-1 (Rattus norvegicus, UniProt Q63921).
T1 construct: from tissue; host or cells: rat whole blood ('ratWB')
T1 sequence (Q63921 27-602): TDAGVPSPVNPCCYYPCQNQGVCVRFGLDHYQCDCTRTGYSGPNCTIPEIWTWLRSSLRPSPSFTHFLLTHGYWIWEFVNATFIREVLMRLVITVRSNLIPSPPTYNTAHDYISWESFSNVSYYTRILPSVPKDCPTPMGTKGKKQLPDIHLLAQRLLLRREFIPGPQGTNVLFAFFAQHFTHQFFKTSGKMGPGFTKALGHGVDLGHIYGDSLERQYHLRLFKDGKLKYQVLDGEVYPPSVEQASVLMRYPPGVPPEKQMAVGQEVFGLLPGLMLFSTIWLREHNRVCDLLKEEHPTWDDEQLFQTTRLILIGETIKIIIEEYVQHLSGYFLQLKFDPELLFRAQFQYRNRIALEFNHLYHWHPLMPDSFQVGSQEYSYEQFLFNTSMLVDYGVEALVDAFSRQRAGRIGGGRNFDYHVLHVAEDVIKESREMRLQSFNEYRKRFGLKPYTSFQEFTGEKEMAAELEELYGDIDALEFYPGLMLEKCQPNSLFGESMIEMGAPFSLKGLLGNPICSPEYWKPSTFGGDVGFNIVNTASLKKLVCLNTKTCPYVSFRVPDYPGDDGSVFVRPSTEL
The assay can be described thus: COXs inhibition, rat whole blood Cox-1. In kind it is cell-based. To be noted: read-out: ratWB Cox-1 IC50. As to the method:
Methods for Testing Compounds on Inhibiting COXs
Activities of inhibiting COXs can be investigated by the manner described in Proc. Natl. Acad. Sci. USA 96, 7563, […].
As a result, compounds of the present invention are less or no potent COXs inhibitors. A result of COXs inhibition of the selected compounds (Example Nos. 1, 3, 12, 188, 474, 497, 507, 513, 527, 533, 562, and 638) are: ratWB Cox-1 IC50>30 μM and ratWB IC50>30 μM.

The target of the next assay is T2, human BKαβ1 channels (Homo sapiens, UniProt Q12791).
T2 construct: expressed in transfected cells; host or cells: CHO cells (G418 and hygromycin selection)
The assay is described as follows: BK current in CHO cells expressing human BKαβ1 (PatchXpress whole-cell patch clamp), EC100. In kind it is cell-based. The settings on record: drug concentration causing 100% increase of BK current. (In general: Patch clamp records ionic current or voltage across a cell membrane.)

Assay [1] deals with rhythmic bladder contractions. The assay is described as follows: Inhibitory effect on the rhythmic bladder contractions in anesthetized rats. The settings on record: anesthetized rats; 10 mg/kg; intravenous. Format: in vivo, rat. The source says: Inhibitory Effect on the Rhythmic Bladder Contractions in Anesthetized Rats
Female Sprague-Dawley rats (9 to 12 weeks old weighing between 200 to 300 g) were anethethized with urethane (subcutaneously administered with a dose of 1.2 g/kg). Both ureters were cannulated to excrete urine. A cannula was inserted into the bladder via the urethra and secured with a ligature around the urethral opening and connected to a three-way stopcock. The ends were connected to a pressure transducer for measurement of bladder pressure and to a infusion pump for intravesical infusion of saline. A cannula was inserted in the femoral vein for intravenous (i.v.) drug administration. Following a over 20 minute post-surgical stabilization period and emptying of urine in the bladder, saline was infused into the bladder (50 μl/min) to evoke the micturition reflex. After the rhythmic bladder contractions had occurred, the saline infusion rate into the bladder was changed to 5 μl/min in order to maintain these contractions. Compounds were administered after stable rhythmic bladder contraction was obtained over 15 minutes. All compounds were dissolved in saline containing 10% dimethyl acetamide for intravenous administration (1 ml/kg). When iberiotoxin, a large conductance calcium-activated K channel blocker (0.15 mg/kg, i.v.) was administered for comparison purposes, it was administered 5 minutes before drug administration.
The frequencies (contractions per minute) of rhythmic bladder contractions were calculated for 10 minutes before and after drug administration. The efficacy of compounds expressed as percent of inhibition in frequency, which calculated from the following formula: (1−frequency after dosing/frequency before dosing)×100(%)

T2 sequence (Q12791 whole entry): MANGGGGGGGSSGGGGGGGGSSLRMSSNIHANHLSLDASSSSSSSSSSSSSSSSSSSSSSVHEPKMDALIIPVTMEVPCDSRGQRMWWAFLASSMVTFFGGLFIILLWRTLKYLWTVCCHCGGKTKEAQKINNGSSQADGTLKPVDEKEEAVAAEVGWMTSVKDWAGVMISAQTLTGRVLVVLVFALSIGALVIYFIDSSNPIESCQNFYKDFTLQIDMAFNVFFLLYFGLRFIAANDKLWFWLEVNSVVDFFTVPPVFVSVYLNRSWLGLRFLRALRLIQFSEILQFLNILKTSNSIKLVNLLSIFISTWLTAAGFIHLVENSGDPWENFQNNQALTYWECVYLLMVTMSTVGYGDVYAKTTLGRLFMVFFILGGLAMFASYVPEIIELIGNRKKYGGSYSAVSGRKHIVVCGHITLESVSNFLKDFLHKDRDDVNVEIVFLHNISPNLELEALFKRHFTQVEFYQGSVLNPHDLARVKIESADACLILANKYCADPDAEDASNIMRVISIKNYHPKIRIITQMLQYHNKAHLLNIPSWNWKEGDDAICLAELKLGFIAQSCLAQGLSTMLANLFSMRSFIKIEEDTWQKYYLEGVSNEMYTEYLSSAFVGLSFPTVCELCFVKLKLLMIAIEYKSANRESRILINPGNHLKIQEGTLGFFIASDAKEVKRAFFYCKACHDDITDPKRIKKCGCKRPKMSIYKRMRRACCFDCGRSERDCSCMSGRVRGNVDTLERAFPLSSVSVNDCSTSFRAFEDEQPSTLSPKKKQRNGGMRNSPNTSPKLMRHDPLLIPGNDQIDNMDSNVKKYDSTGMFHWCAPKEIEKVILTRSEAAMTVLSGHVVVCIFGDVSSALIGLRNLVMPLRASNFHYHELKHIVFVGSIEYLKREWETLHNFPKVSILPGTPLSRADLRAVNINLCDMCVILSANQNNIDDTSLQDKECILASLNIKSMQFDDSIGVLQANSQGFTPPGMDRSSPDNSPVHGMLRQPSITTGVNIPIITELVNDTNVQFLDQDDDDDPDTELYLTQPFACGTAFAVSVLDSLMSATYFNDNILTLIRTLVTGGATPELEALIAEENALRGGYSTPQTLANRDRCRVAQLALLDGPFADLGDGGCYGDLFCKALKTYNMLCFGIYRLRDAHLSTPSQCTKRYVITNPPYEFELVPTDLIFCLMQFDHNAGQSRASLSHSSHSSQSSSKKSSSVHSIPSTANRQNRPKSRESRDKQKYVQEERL
T2 sequence (Q16558 whole entry partner): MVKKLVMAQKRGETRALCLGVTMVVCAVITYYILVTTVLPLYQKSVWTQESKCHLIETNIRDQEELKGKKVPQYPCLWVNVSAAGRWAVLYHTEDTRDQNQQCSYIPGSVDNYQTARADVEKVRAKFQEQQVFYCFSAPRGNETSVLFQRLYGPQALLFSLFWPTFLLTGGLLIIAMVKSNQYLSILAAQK

Consider `CC(C)(Oc1cc(N2CCCCC2)nc(-c2ccc(Cl)c(F)c2)n1)C(=O)O` [Example 1], for which the half-inhibitory concentration (IC50) on Cox-1 was > 30 µM.

`O=C(O)COc1cc(N2CCc3ccccc32)nc(-c2ccc(Cl)c(F)c2)n1` [Example 3]: at Cox-1, the half-maximal inhibitory concentration (IC50) is > 30 µM.

Consider `O=C(O)COc1cc(-c2ccc(Cl)c(F)c2)nc(-c2ccc(F)cc2)n1` [Example 188], for which, at Cox-1, the IC50 is > 30 µM.

Consider `CC(C)(Oc1cc(-c2cccc3cccnc23)nc(-c2ccc(Cl)c(F)c2)n1)C(=O)[O-].[Na+]` [Example 497], for which the EC100 at human BKαβ1 channels came to 0.31 µM. Also, the “percent of inhibition in frequency of rhythmic bladder contractions” value (from here on “percent of inhibition”) in assay [1] was “B (B: 50 > inhibition(%) > 30)”.

As to `COCc1ccc(-c2cc(OC3(C(=O)[O-])CC3)nc(-c3ccc(Cl)c(F)c3)n2)cc1.[Na+]` [Example 527], on human BKαβ1 channels, the EC100 is 0.37 µM. Also, the “percent of inhibition” value in assay [1] is “A (A: inhibition(%) > 50)”.

Take `COc1ccc(-c2cc(OC3(C(=O)[O-])CC3)nc(-c3ccc(Cl)c(F)c3)n2)cn1.[Na+]` [Example 534]: the EC100 on human BKαβ1 channels was 0.36 µM. Also, in assay [1], the “percent of inhibition” value is reported as “B (B: 50 > inhibition(%) > 30)”.

`COc1ccccc1-c1cc(OC2(C(=O)[O-])CCCC2)nc(-c2ccc(Cl)c(F)c2)n1.[Na+]` [Example 565] came in with an EC100 at human BKαβ1 channels of 0.28 µM. In addition, the “percent of inhibition” value in assay [1] is recorded as “B (B: 50 > inhibition(%) > 30)”.

As to `COCCOc1cc(F)ccc1-c1cc(OC2(C(=O)[O-])CC2)nc(-c2ccc(F)c(F)c2)n1.[Na+]` [Example 619], the EC100 on human BKαβ1 channels is 0.49 µM. Also, the “percent of inhibition” value in assay [1] is on record as “B (B: 50 > inhibition(%) > 30)”.

In the case of `CCOc1cc(-c2nc(-c3ccc(F)cc3)nc(OC3(C(=O)[O-])CC3)c2C)ccc1F.[Na+]` [Example 977], the EC100 on human BKαβ1 channels was found to be 0.13 µM. In assay [1], the “percent of inhibition” value is “B (B: 50 > inhibition(%) > 30)”.

In the case of `Cc1ccc(Cl)cc1-c1nc(OC2(C(=O)[O-])CC2)nc(-c2ccc(Cl)cc2)n1.[Na+]` [Example 1091], the EC100 on human BKαβ1 channels stood at 0.03 µM. For the same molecule, in assay [1], the “percent of inhibition” value is listed as “B (B: 50 > inhibition(%) > 30)”.

With `O=C([O-])C1(Oc2cc(N3CCc4cc(F)ccc4C3)nc(-c3ccc(F)cc3)n2)CC1.[Na+]` [Example 1110], on human BKαβ1 channels, the EC100 came to 0.3 µM. The “percent of inhibition” value in assay [1] is on record as “B (B: 50 > inhibition(%) > 30)”.

At human BKαβ1 channels, `CCO[C@H]1CCCN(c2nc(OC3(C(=O)[O-])CC3)cc(-c3cc(Cl)c(Cl)s3)n2)C1.[Na+]` [Example 1227] had an EC100 of 0.37 µM. In assay [1], the “percent of inhibition” value was “B (B: 50 > inhibition(%) > 30)”.

One may read the IC50 as the concentration that gives 50% inhibition.
